Experimental data published in patent US20130116209A1, “METHOD FOR SELECTION OF CHEMOTHERAPEUTIC AGENTS FOR ADENOCARCINOMA CANCER” (VENTANA MEDICAL SYSTEMS, INC., priority 2011, published 2013).

Assays:
[1] = test system: pancreatic adenocarcinoma; experiment: Retrospective RTOG 9704 study: tumor hENT1 expression (IHC, SP120 antibody) versus overall survival after adjuvant gemcitabine or 5FU; assay type: in vivo, human; conditions: for OS of Low hENT1 subgroup compared to High hENT1 subgroup / OS across High, Mid and No hENT1 subgroups: Method Six; for OS across High, Mid and No hENT1 subgroups: three subgroups (FIG. 2 score sheet), FIGS. 33-34
Procedure: The RTOG 9704 study and its results are further described in Regine, W. F. et al. (2008) JAMA 299(9):1019-1026; Regine, W. F. et al. (2011) Ann. Surg. Oncol. 18:1319-1326.
Formalin-fixed, paraffin-embedded (FFPE) specimens have been retrieved from tissue repositories. The specimens were obtained from patients prior to adjuvant therapy. Tissue was processed into tissue microarrays (TMA) at the RTOG Biospecimen Resource center and IHC staining was performed in a central laboratory (Ventana Medical Systems). Stained slides were interpreted by pathologists blind to study outcomes.
Samples have been centralized within the RTOG Biospecimen Resource facility. Tissue micro arrays (TMA) were also constructed in the RTOG Biospecimen Resource facility. Three cores from each tumor specimen were arrayed on three separate TMAs. A total of 220 cases were arrayed on the TMAs.
Slides from TMAs were prepared and forwarded to the core pathology laboratory (Ventana Medical Systems), and stained by SP120 rabbit monoclonal antibody for detection of hENT1 protein according to established methods. The following parameters were recorded for each specimen based on scoring by a pathologist blinded to the patient's clinical characteristics and outcome: • Intensity of staining (e.g. 0=no stain, 1+=weakly positive, 2+=moderately positive, 3+=strongly positive) • Percentage of tumor cells with staining at each intensity level (% of tumor tissue specifically excluding non-malignant cells/regions) • Pattern of staining (segmented or diffuse) • Cellular compartment (membrane or cytoplasm).

[2] = test system: pancreatic cancer; conditions: Stage III/IV disease, gemcitabine monotherapy, unresectable pancreatic cancer; cited from earlier work
[3] = FIG. 3 algorithm (50% of tumor with membrane staining at 10×), FIGS. 4-5
[4] = FIG. 6 algorithm (PP at 2×, 4×, 10× and negative tumor <=50%), FIGS. 7-8

Structure (SMILES) | median OS as hENT1 expression increases from No to Low to High ([1]; Method Five (percent negative staining), FIG. 18) | median OS as hENT1 expression increases from Negative to Weak to Moderate to Strong ([1]; Method Four (staining intensity), FIG. 30) | median OS as hENT1 expression (H-score subgroup) increases ([1]; Method One (H-score), FIG. 22) | OS of Low hENT1 subgroup compared to High hENT1 subgroup [1, 3] | OS of Low hENT1 subgroup compared to High hENT1 subgroup [1, 4] | OS across High, Mid and No hENT1 subgroups [1] | median OS as hENT1 expression increases from Negative to Segmental to Diffuse ([1]; Method Three (staining pattern), FIG. 26) | median OS [2] | OS of No hENT1 subgroup compared to Low and High hENT1 subgroups ([1]; Method Five, FIG. 19) | OS of combined Low and High hENT1 subgroup compared to No hENT1 subgroup ([1]; Method Five, FIG. 20) | OS of negative hENT1 subgroup compared to Weak, Moderate or Strong subgroups ([1]; Method Four, FIG. 31) | OS of H-score<=20 subgroup compared to H-score 20-80 and >=80 subgroups ([1]; Method One, FIG. 23) | OS of H-score>=50 patients compared to H-score <50 patients ([1]; Method One, FIG. 24) | OS of negative hENT1 subgroup compared to Segmental or Diffuse subgroups ([1]; Method Three, FIG. 27) | OS of patients with detectable hENT1 (S or D) compared to no hENT1 expression ([1]; Method Three, FIG. 28) | OS of subgroup N, 20× or 40× compared to subgroup PP at 2×, 4× or 10× ([1]; Method Two (magnification), FIGS. 15-16)
O=c1[nH]cc(F)c(=O)[nH]1 [5FU, 5-Fluorouracil] | do not demonstrate an improvement in OS | do not demonstrate an improvement in OS | do not demonstrate an improvement in OS | do not demonstrate improvement in OS | do not demonstrate improvement in OS | do not demonstrate improvement in OS | do not demonstrate an improvement in OS |  |  |  |  |  |  |  |  | 
Nc1ccn([C@@H]2O[C@H](CO)[C@@H](O)C2(F)F)c(=O)n1 [gemcitabine] |  |  |  | shorter OS | shorter OS | No hENT1 expression exhibited the shortest OS followed by the Mid hENT1 subgroup and the High hENT1 subgroup had the longest OS |  | 5-7 months | shorter OS | longer OS | shorter OS | shorter OS | longer OS | shorter OS | longer OS | shorter OS
